Results taken from US10463644B2, “Uses of sesquiterpene lactone compounds and their derivatives in drugs preparation” (ACCENDATECH, priority 2013, dated 2019).
Like-named read-outs stand apart in the source and are kept apart here.

Assays:
[1] = tested on: TNF-α secreted by synoviocyte; assay: Content of TNF-α in culture supernatant of synoviocyte of RA model rats given test compound; format: in vivo; settings: rat RA model, dose 30 mg/kg.2d; normal control 0.38 ± 0.027, NaCl 0.74 ± 0.098
Summary of the method: (§1)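 Animals with induced RA are grouped and dosed with compound (30 mg/kg.2d) alongside NaCl and normal controls. Synoviocytes are prepared and cultured, and supernatants are harvested. TNF-α and PGE2 secretion are then quantified by one procedure, IL-1β by another.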

[2] = tested on: IL-1β secreted by synoviocyte; assay: Content of IL-1β in culture supernatant of synoviocyte of RA model rats given test compound; format: in vivo; settings: rat RA model, dose 30 mg/kg.2d; normal control 0.16 ± 0.034, NaCl 0.49 ± 0.136
Summary of the method: as §1

[3] = tested on: PGE2 secreted by synoviocyte; assay: Content of PGE2 in culture supernatant of synoviocyte of RA model rats given test compound; format: in vivo; settings: rat RA model, dose 30 mg/kg.2d; normal control 8.34 ± 1.29, NaCl 32.44 ± 10.32
Summary of the method: as §1

cancer stem cells = assay: Survival rate of cancer stem cells after test compound is added (flow cytometry, Annexin V-FITC/PI, clinical specimen); format: cell-based, patient; settings: Homo sapiens, 18 h
Summary of the method: (§2)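 Patient tumour or leukaemia cells, identified by cancer-specific stem-cell markers (CD34+/CD38+ for AML), are treated with compound for 18 hours in serum-free IMDM. Apoptosis is then measured as Annexin V-FITC/PI staining by flow cytometry.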

cancer cells = assay: Survival rate of cancer cells after test compound is added (flow cytometry, Annexin V-FITC/PI, clinical specimen); format: cell-based, patient; settings: Homo sapiens, 18 h, read-out: Survival rate (%) All cells (Stem cells and ordinary cells)
Summary of the method: as §2

[4] = Head and neck squamous cell carcinomas

In the case of CN(C)C[C@@H]1C(=O)O[C@H]2[C@H]1CCC1(CC1)[C@@H]1CCC3(CC3)[C@H]21 [Compound 35], the “Content of TNF-α in culture supernatant of synoviocyte (x ± s)” value [1] is reported as 0.57 ± 0.057 ng/mL, the “Content of IL-1β in culture supernatant of synoviocyte (x ± s)” value [2] is reported as 0.41 ± 0.056 ng/mL and the “Content of PGE2 in culture supernatant of synoviocyte (x ± s)” value [3] is reported as 21.54 ± 1.32 ng/mL. For the same compound, the viability at 10 µM (cancer stem cells; AML) was 82%, the viability at 20 µM (cancer stem cells; AML) was 73% and the viability at 10 µM (cancer stem cells; Brain glioma) was 84%. The viability at 20 µM (cancer stem cells; Brain glioma) was 78%, the viability at 10 µM (cancer stem cells; Brain tumor) was 81% and the viability at 20 µM (cancer stem cells; Brain tumor) was 75%. The viability at 10 µM (cancer stem cells; Breast cancer) was 86%, the viability at 20 µM (cancer stem cells; Breast cancer) was 78% and the viability at 10 µM (cancer stem cells; CLL) was 81%. It also gave a viability at 20 µM (cancer stem cells; CLL) of 75%, a viability at 10 µM (cancer stem cells; CML) of 84% and a viability at 20 µM (cancer stem cells; CML) of 78%. The viability at 10 µM (cancer stem cells; Children hepatoblastoma) was 87%, the viability at 20 µM (cancer stem cells; Children hepatoblastoma) was 76% and the viability at 10 µM (cancer stem cells; Colon adenocarcinoma) was 84%. It also gave a viability at 20 µM (cancer stem cells; Colon adenocarcinoma) of 78%, a viability at 10 µM (cancer stem cells; Colorectal cancer) of 82% and a viability at 20 µM (cancer stem cells; Colorectal cancer) of 73%. For the same compound, the viability at 10 µM (cancer stem cells; Gastric cancer) was 85%, the viability at 20 µM (cancer stem cells; Gastric cancer) was 77% and the viability at 10 µM (cancer stem cells; Gastrointestinal tumor) was 85%. It also gave a viability at 20 µM (cancer stem cells; Gastrointestinal tumor) of 77%, a viability at 10 µM (cancer stem cells; Glioma) of 81% and a viability at 20 µM (cancer stem cells; Glioma) of 75%. For the same compound, the viability at 10 µM (cancer stem cells; [4]) was 82%, the viability at 20 µM (cancer stem cells; [4]) was 73% and the viability at 10 µM (cancer stem cells; Laryngeal cancer) was 82%. The viability at 20 µM (cancer stem cells; Laryngeal cancer) was 76%, the viability at 10 µM (cancer stem cells; Liver cancer) was 84% and the viability at 20 µM (cancer stem cells; Liver cancer) was 74%. For the same compound, the viability at 10 µM (cancer stem cells; Lung adenocarcinoma) was 82%, the viability at 20 µM (cancer stem cells; Lung adenocarcinoma) was 73% and the viability at 10 µM (cancer stem cells; Lung cancer) was 84%. For the same compound, the viability at 20 µM (cancer stem cells; Lung cancer) was 78%, the viability at 10 µM (cancer stem cells; Malignant melanoma) was 87% and the viability at 20 µM (cancer stem cells; Malignant melanoma) was 75%. For the same compound, the viability at 10 µM (cancer stem cells; Nasopharynx cancer) was 86%, the viability at 20 µM (cancer stem cells; Nasopharynx cancer) was 78% and the viability at 10 µM (cancer stem cells; Ovarian cancer) was 84%. For the same compound, the viability at 20 µM (cancer stem cells; Ovarian cancer) was 78%, the viability at 10 µM (cancer stem cells; Pancreatic cancer) was 79% and the viability at 20 µM (cancer stem cells; Pancreatic cancer) was 72%. It also gave a viability at 10 µM (cancer stem cells; Prostate cancer) of 85%, a viability at 20 µM (cancer stem cells; Prostate cancer) of 79% and a viability at 10 µM (cancer stem cells; Retinoblastoma) of 88%. It also gave a viability at 20 µM (cancer stem cells; Retinoblastoma) of 81%, a viability at 10 µM (cancer stem cells; Skin cancer) of 85% and a viability at 20 µM (cancer stem cells; Skin cancer) of 77%. For the same compound, the viability at 10 µM (cancer cells; AML) was 91%, the viability at 20 µM (cancer cells; AML) was 87% and the viability at 10 µM (cancer cells; Brain glioma) was 92%. The viability at 20 µM (cancer cells; Brain glioma) was 87%, the viability at 10 µM (cancer cells; Brain tumor) was 87% and the viability at 20 µM (cancer cells; Brain tumor) was 83%. It also gave a viability at 10 µM (cancer cells; Breast cancer) of 93%, a viability at 20 µM (cancer cells; Breast cancer) of 92% and a viability at 10 µM (cancer cells; CLL) of 87%. The viability at 20 µM (cancer cells; CLL) was 83%, the viability at 10 µM (cancer cells; CML) was 91% and the viability at 20 µM (cancer cells; CML) was 88%. The viability at 10 µM (cancer cells; Children hepatoblastoma) was 94%, the viability at 20 µM (cancer cells; Children hepatoblastoma) was 87% and the viability at 10 µM (cancer cells; Colon adenocarcinoma) was 91%. For the same compound, the viability at 20 µM (cancer cells; Colon adenocarcinoma) was 88%, the viability at 10 µM (cancer cells; Colorectal cancer) was 91% and the viability at 20 µM (cancer cells; Colorectal cancer) was 87%. It also gave a viability at 10 µM (cancer cells; Gastric cancer) of 92%, a viability at 20 µM (cancer cells; Gastric cancer) of 89% and a viability at 10 µM (cancer cells; Gastrointestinal tumor) of 92%. It also gave a viability at 20 µM (cancer cells; Gastrointestinal tumor) of 89%, a viability at 10 µM (cancer cells; Glioma) of 87% and a viability at 20 µM (cancer cells; Glioma) of 83%. The viability at 10 µM (cancer cells; [4]) was 91%, the viability at 20 µM (cancer cells; [4]) was 87% and the viability at 10 µM (cancer cells; Laryngeal cancer) was 89%. For the same compound, the viability at 20 µM (cancer cells; Laryngeal cancer) was 86%, the viability at 10 µM (cancer cells; Liver cancer) was 89% and the viability at 20 µM (cancer cells; Liver cancer) was 86%. The viability at 10 µM (cancer cells; Lung adenocarcinoma) was 91%, the viability at 20 µM (cancer cells; Lung adenocarcinoma) was 87% and the viability at 10 µM (cancer cells; Lung cancer) was 91%. The viability at 20 µM (cancer cells; Lung cancer) was 88%, the viability at 10 µM (cancer cells; Malignant melanoma) was 91% and the viability at 20 µM (cancer cells; Malignant melanoma) was 84%. The viability at 10 µM (cancer cells; Nasopharynx cancer) was 93%, the viability at 20 µM (cancer cells; Nasopharynx cancer) was 92% and the viability at 10 µM (cancer cells; Ovarian cancer) was 91%. For the same compound, the viability at 20 µM (cancer cells; Ovarian cancer) was 88%, the viability at 10 µM (cancer cells; Pancreatic cancer) was 88% and the viability at 20 µM (cancer cells; Pancreatic cancer) was 81%. For the same compound, the viability at 10 µM (cancer cells; Prostate cancer) was 88%, the viability at 20 µM (cancer cells; Prostate cancer) was 85% and the viability at 10 µM (cancer cells; Retinoblastoma) was 91%. For the same compound, the viability at 20 µM (cancer cells; Retinoblastoma) was 89%, the viability at 10 µM (cancer cells; Skin cancer) was 92% and the viability at 20 µM (cancer cells; Skin cancer) was 89%.
